# Experimental data: publication PMC5321639, “Design and pharmacodynamics of recombinant NZ2114 histidine mutants with improved activity against methicillin-resistant Staphylococcus aureus” (AMB Express, 2017)
# Values joined by “and” are separate entries in the source; they are usually repeats but may differ in a detail not shown here. Identical values can stand only once. Like-named read-outs stand apart in the source and are kept apart here. Marks after values point to notes of the source that are not given here. Where a SMILES comes first, the peptide text is derived from it. Bridges are numbered along the chain shown (N, C = ends).
# Experiments:
# S. aureus ATCC43300 [1] = assay: Effect of proteinases on activity (MIC); format: cell-based, Staphylococcus aureus; conditions: 1:10 w/w proteinase:peptide, 37 °C for 3 h, then MIC assay
# Protocol: (§1) The peptide solutions were diluted twofold with the range of final concentrations were 0.015–32 µg/ml (0.003–7.273 µM) for purified H1, H2, H3, H6, and H8. The test strains were grown in MHB medium at 37 °C to an OD600 of 0.4 and diluted to 1 × 10^5 CFU/ml. The 10 µl peptide and 90 µl cell suspension were added into each well. All assays were performed in triplicate. The antimicrobial activity of NZ2114 and vancomycin were tested as positive controls. The plates were incubated at 37 °C for 18–24 h. MIC was defined as the lowest peptide concentration of ones at which there was no visible growth (Tian et al. [2009]).
# (§2) The effect of pH, temperature, NaCl concentration and proteinase on the activity of peptides was evaluated. Peptides were diluted twofold, then adjusted to a pH range from 2.0 to 10.0 and incubated at 37 °C for 4 h. The thermal stability of purified peptides was determined after 1-h incubation of peptides at 4, 20, 40, 60, 80 and 100 °C in deionized water, respectively. Aliquots of peptides were incubated in various proteinases solutions [pepsin (pH 2.0), trypsin (pH 8.0), proteinase K (pH 7.0)] at a ratio of 1:10, w/w (proteinase: peptide) at 37 °C for 3 h. For the ion stability, peptides were incubated in 50, 100, 200, 300, 400, 500 mM sodium chloride solutions, respectively. Other methods and conditions were prepared as the MIC assay described above (Li et al. [2015]; Qu et al. [2016]).
# mice red blood cells = assay: Hemolytic assay; format: cell-based; conditions: 0.23 to 7.27 μM (1–32 μg/ml), 37 °C 1 h
# Protocol: The mice blood cells were washed three times in stroke-physiological saline solution (0.9% NaCl) and centrifuged at 4 °C, 2000 rpm for 5 min. A 50-μl cell was diluted to 8% (v/v), added into 96-well plates, and mixed with 50-μl peptide to the final concentrations ranging from […]. The plates were incubated at 37 °C for 1 h, and centrifuged at 4 °C, 5000 rpm for 5 min. The absorbance of supernatants was measured at 540 nm, and 0 and 100% hemolysis was measured by 0.9% NaCl and 0.1% Triton X-100, respectively. The hemolysis percentages were calculated by the following equation: [(Abs540 nm in H1, H2, H3 solution − Abs540 nm in 0.9% NaCl)/(Abs540 nm in 0.1% Triton X-100 − Abs540 nm in 0.9% NaCl)] ×100% (Jiao et al. [2015]).
# S. aureus ATCC43300 [2] = assay: Effect of temperature on activity (MIC); format: cell-based, Staphylococcus aureus; conditions: then MIC assay
# Protocol: as §1, §2
# S. aureus ATCC43300 [3] = assay: microbe, parasite or virus in culture; format: cell-based, Staphylococcus aureus; conditions: for MICc (MIC of the most effective combination): checkerboard; for FIC: MICc/MICa
# Protocol: The MIC values of four antibiotics (vancomycin, ampicillin, rifampicin and ciprofloxacin) to S. aureus ATCC43300 were tested as the MIC assay described above. The peptide solutions and antibiotics were diluted twofold with the final concentrations ranging from 1/16 to 8× MIC, and added into 96-well plates in a checkerboard fashion (White et al. [1996]). The results of combination were evaluated by calculating the fractional inhibitory concentration index (FICI) of each combination. FIC of H1, H2, H3=MIC of H1, H2, H3, respectively, in combination with antibiotic/MIC of H1, H2, H3 alone; FIC of antibiotics=MIC of antibiotic in combination with peptide/MIC of antibiotic alone; FICI = FIC of H1, H2, H3+ antibiotic, respectively. The result of interaction between two antimicrobial drugs was determined according to: FICI ≤ 0.5 refers to synergy, 0.5 < FICI ≤ 1 refers to additivity, 1 < FICI ≤ 4 refers to indifference, and FICI > 4 is defined as antagonism (Tsuji and Rybak [2006]).
# S. aureus ATCC43300 [4] = assay: Postantibiotic effect (PAE); format: cell-based, Staphylococcus aureus; conditions: 2 h exposure at 37 °C, 1 × 10^8 CFU/ml, drug removed by 1:10^3 dilution, mean ± SD, n = 3
# Protocol: After 2 h, the drug was removed by diluting 1:10^3 into the MHB and incubated at 37 °C, 250 rpm. The sample was taken to plate counting every 1 h until the bacterial cultures become turbid. The PAE was calculated by the following formula: PAE = T − C, where T is the time needed for the count of CFU in the test culture to increase 1 log10 (10-fold) above the 0 h and C is the time needed for the count of CFU in the untreated control culture to increase 1 log10 above the 0 h (Giguère et al. [2012]).
# [5] = system: S. aureus ATCC43300 (MRSA); assay: Time-kill curve assay; format: cell-based, Staphylococcus aureus; conditions: 1× MIC
# Protocol: Bacterial culture (S. aureus ATCC43300) was diluted to 1 × 10^5 CFU/ml and H1, H2, and H3 were added. […] The mixture was cultivated at 250 rpm, 37 °C. The 100-µl samples were taken from each flask at 0, 2, 4, 6, 8, 12 and 24 h of incubation, and serial dilutions of samples were plated to count visible colonies. Vancomycin was tested in the same way as a positive control and the culture without antimicrobial agent as a negative control (Xiong et al. [2011]). All experiments were performed in triplicate.
# S. aureus ATCC43300 [6] = assay: Effect of pH on activity (MIC); format: cell-based, Staphylococcus aureus; conditions: then MIC assay
# Protocol: as §1, §2
# S. aureus ATCC43300 [7] = assay: Effect of NaCl concentration on activity (MIC); format: cell-based, Staphylococcus aureus
# Protocol: as §1, §2
# S. aureus ATCC6538 = assay: MIC assay; format: cell-based, Staphylococcus aureus; conditions: Staphylococcus aureus, ATCC6538; MHB, 1 × 10^5 CFU/ml, 37 °C, 18–24 h, no visible growth, triplicate
# Protocol: as §1
# S. aureus ATCC25923 = assay: MIC assay; format: cell-based, Staphylococcus aureus; conditions: Staphylococcus aureus, ATCC25923; MHB, 1 × 10^5 CFU/ml, 37 °C, 18–24 h, no visible growth, triplicate
# Protocol: as §1
# [8] = system: S. aureus ATCC43300 (MRSA); assay: MIC assay; format: cell-based; conditions: Staphylococcus aureus; MHB, 1 × 10^5 CFU/ml, 37 °C, 18–24 h, no visible growth, triplicate
# Protocol: as §1
# S. suis CVCC606 = conditions: data from previous results; ref Jiao et al. [2015]; cited from earlier work
# Text: (§3) Table 2 MIC assays of H1, H2, H3, H6, H8, NZ2114, and vancomycin against G^+ and G^− pathogens | column: MIC (μM) / Van
# S. suis CVCC3309 = conditions: data from previous results; ref Jiao et al. [2015]; cited from earlier work
# Text: as §3
# S. suis CVCC3928 = conditions: data from previous results; ref Jiao et al. [2015]; cited from earlier work
# Text: as §3
# rabbit and human RBCs = conditions: ref Yang et al. [2011], Zhang et al. [2014]; cited from earlier work
# Text: Although the values were higher than NZ2114 due to the high charge and hydrophilicity, they were still very low in the range of MICs. […] Owing to contribution from the three pairs of disulfide bond into th ...
molecule,measurement,setting,value
"CC[C@H](C)[C@@H]1NC(=O)[C@H](CO)NC(=O)[C@H](CCCCN)NC(=O)[C@@H]2CSSC[C@@H](C(=O)N[C@@H](Cc3ccc(O)cc3)C(=O)O)NC(=O)[C@H](CCCCN)NC(=O)[C@@H]3CSSC[C@H](NC(=O)[C@H](CCCNC(=N)N)NC(=O)[C@H](CC(C)C)NC(=O)[C@H](CC(=O)O)NC(=O)[C@H](CC(=O)O)NC(=O)[C@H](CCC(=O)O)NC(=O)[C@H](CC(N)=O)NC(=O)[C@H](Cc4c[nH]c5ccccc45)NC(=O)[C@@H]4CCCN4C(=O)CNC(=O)[C@H](CC(N)=O)NC(=O)[C@@H](NC(=O)CNC(=O)[C@H](Cc4ccccc4)NC(=O)CN)CSSC[C@H](NC(=O)[C@H](Cc4ccc(O)cc4)NC(=O)CNC(=O)CNC(=O)[C@H](CCCCN)NC(=O)[C@H](Cc4ccc(O)cc4)NC(=O)CNC(=O)[C@H](CCCCN)NC1=O)C(=O)N[C@@H](C)C(=O)N[C@@H](CCCCN)C(=O)NCC(=O)NCC(=O)N[C@@H](Cc1ccccc1)C(=O)N[C@@H](C(C)C)C(=O)N3)C(=O)N[C@@H](Cc1c[nH]cn1)C(=O)N[C@@H](CC(N)=O)C(=O)N[C@@H](CCCCN)C(=O)N2 [H3] (H-GFGCNGPWNEDDLRCHNKCKSIKGYKGGYCAKGGFVCKCY-OH; disulfide 4-30, 15-37, 19-39 (inferred); N-terminus and C-terminus assumed)",MIC after Pepsin,S. aureus ATCC43300 [1]; pepsin (pH 2.0),0.057 µM
same,MIC after Proteinase K,S. aureus ATCC43300 [1]; proteinase K (pH 7.0),0.114 µM
same,MIC after Trypsin,S. aureus ATCC43300 [1]; trypsin (pH 8.0),0.057 µM
same,hemolytic activity,mice red blood cells,little or no hemolytic activity
same,MIC after incubation at 4 °C,S. aureus ATCC43300 [2]; 1 h at 4 °C in deionized water,0.057 µM
same,MIC after incubation at 20 °C,S. aureus ATCC43300 [2]; 1 h at 20 °C in deionized water,0.057 µM
same,MIC after incubation at 40 °C,S. aureus ATCC43300 [2]; 1 h at 40 °C in deionized water,0.057 µM
same,MIC after incubation at 60 °C,S. aureus ATCC43300 [2]; 1 h at 60 °C in deionized water,0.057 µM
same,MIC after incubation at 80 °C,S. aureus ATCC43300 [2]; 1 h at 80 °C in deionized water,0.057 µM
same,MIC after incubation at 100 °C,S. aureus ATCC43300 [2]; 1 h at 100 °C in deionized water,0.114 µM
same,MICc (MIC of the most effective combination),S. aureus ATCC43300 [3]; in combination with ampicillin,0.056 µM
same,MICc (MIC of the most effective combination),S. aureus ATCC43300 [3]; in combination with ciprofloxacin,0.056 µM
same,MICc (MIC of the most effective combination),S. aureus ATCC43300 [3]; in combination with rifampicin,0.056 µM
same,MICc (MIC of the most effective combination),S. aureus ATCC43300 [3]; in combination with vancomycin,0.028 µM
same,MIC,"S. aureus ATCC43300 [3]; drug alone, read-out: MICa (MIC of drug alone)",0.056 µM
same,PAE,S. aureus ATCC43300 [4]; 1× MIC,0.55 h and 0.55 ± 0.13 h
same,PAE,S. aureus ATCC43300 [4]; 2× MIC,1.55 ± 0.07 h
same,incubation time after which regrowth occurred,[5],8 h
same,MIC after incubation at pH2,"S. aureus ATCC43300 [6]; pH 2, 37 °C for 4 h",0.057 μM
same,MIC after incubation at pH4,"S. aureus ATCC43300 [6]; pH 4, 37 °C for 4 h",0.057 μM
same,MIC after incubation at pH6,"S. aureus ATCC43300 [6]; pH 6, 37 °C for 4 h",0.114 μM
same,MIC after incubation at pH8,"S. aureus ATCC43300 [6]; pH 8, 37 °C for 4 h",0.057 μM
same,MIC after incubation at pH10,"S. aureus ATCC43300 [6]; pH 10, 37 °C for 4 h",0.057 μM
same,MIC in 50 mM NaCl,S. aureus ATCC43300 [7]; incubated in 50 mM sodium chloride solution,0.057 µM
same,MIC in 100 mM NaCl,S. aureus ATCC43300 [7]; incubated in 100 mM sodium chloride solution,0.057 µM
same,MIC in 200 mM NaCl,S. aureus ATCC43300 [7]; incubated in 200 mM sodium chloride solution,0.057 µM
same,MIC in 300 mM NaCl,S. aureus ATCC43300 [7]; incubated in 300 mM sodium chloride solution,0.057 µM
same,MIC in 400 mM NaCl,S. aureus ATCC43300 [7]; incubated in 400 mM sodium chloride solution,0.114 µM
CN[C@H](CC(C)C)C(=O)N[C@H]1C(=O)N[C@@H](CC(N)=O)C(=O)N[C@H]2C(=O)N[C@H]3C(=O)N[C@H](C(=O)N[C@H](C(=O)O)c4cc(O)cc(O)c4-c4cc3ccc4O)[C@H](O)c3ccc(c(Cl)c3)Oc3cc2cc(c3O[C@@H]2O[C@H](CO)[C@@H](O)[C@H](O)[C@H]2O[C@H]2C[C@](C)(N)[C@H](O)[C@H](C)O2)Oc2ccc(cc2Cl)[C@H]1O [vancomycin],MIC,S. aureus ATCC6538,1.43 µM
same,MIC,S. aureus ATCC25923,0.172 µM
same,MIC,[8],0.714 µM
same,MIC,S. suis CVCC606,0.172^b μM
same,MIC,S. suis CVCC3309,0.172^b μM
same,MIC,S. suis CVCC3928,0.172^b μM
same,MIC,"S. aureus ATCC43300 [3]; Staphylococcus aureus, ATCC43300, read-out: MICa (MIC of drug alone)",0.714 µM
same,MICc (MIC of the most effective combination),S. aureus ATCC43300 [3]; in combination with H1,0.714 µM
same,MICc (MIC of the most effective combination),S. aureus ATCC43300 [3]; in combination with H2,0.714 µM
same,MICc (MIC of the most effective combination),S. aureus ATCC43300 [3]; in combination with H3,0.714 µM
same,FIC,S. aureus ATCC43300 [3]; in combination with H1,1
same,FIC,S. aureus ATCC43300 [3]; in combination with H2,1
same,FIC,S. aureus ATCC43300 [3]; in combination with H3,1
same,PAE,S. aureus ATCC43300 [4]; 2× MIC,1.72 ± 0.11 h
Plectasin,hemolysis,rabbit and human RBCs,no hemolysis
